Experimental data taken from ChEMBL document CHEMBL1124410, “New antitumor monoclonal antibody-vinca conjugates LY203725 and related compounds: design, preparation, and representative in vivo activity” (J Med Chem, 1989).
In brackets after ≈: the same amount, converted by molar mass.

Key:
[1] = In vitro inhibition of P3UCLA human adenocarcinoma cell proliferation was determined in MTT proliferation assay; format: functional
CCRF-CEM = test: In vitro inhibition of CCRF-CEM human leukemic lymphoblasts proliferation was determined; format: functional, cell-based

## CC[C@]1(O)C[C@@H]2CN(CCc3c([nH]c4ccccc34)[C@@](C(=O)OC)(c3cc4c(cc3OC)N(C)[C@H]3[C@@](O)(C(=O)NN)[C@H](O)[C@]5(CC)C=CCN6CC[C@]43[C@@H]65)C2)C1 [DESACETYLVINBLASTINEHYDRAZIDE]
[1]
  IC50: < 0.0003 mg/L
CCRF-CEM
  IC50: 0.03 mg/L (≈ 0.039 µM)

## CC[C@]1(O)CC2CN(CCc3c([nH]c4ccccc34)[C@@](C(=O)OC)(c3cc4c(cc3OC)N(C)C3C45CCN4CC=C[C@](CC)(C45)C(O)[C@]3(O)C(=O)OC)C2)C1 (stereo partly specified)
[1]
  IC50: 0.0003 mg/L (≈ 0.00039 µM)

## CC[C@]1(O)CC2CN(CCc3c([nH]c4ccccc34)[C@@](C(=O)OC)(c3cc4c(cc3OC)N(C)C3C45CCN4CC=C[C@](CC)(C45)C(OC(C)=O)[C@]3(O)C(=O)OC)C2)C1 (stereo partly specified)
CCRF-CEM
  IC50: 0.1 mg/L (≈ 0.123 µM)

## CC[C@]1(O)CC2CN(CCc3c([nH]c4ccccc34)[C@@](C(=O)OC)(c3cc4c(cc3OC)N(C)C3C45CCN4CC=C[C@](CC)(C45)C(OC(=O)CCC(=O)O)[C@]3(O)C(=O)OC)C2)C1 (stereo partly specified)
[1]
  IC50: 0.003 mg/L (≈ 0.00345 µM)
CCRF-CEM
  IC50: 1.4 mg/L (≈ 1.61 µM)
